# Results as given in ChEMBL document CHEMBL1649265, “Antimicrobial susceptibilities of Mycoplasma genitalium strains examined by broth dilution and quantitative PCR” (2009).
# Tests used:
# Format in all cases: functional
# Mycoplasma genitalium [1] = assay: Antibacterial activity against Mycoplasma genitalium UTMB-10G by broth dilution method; conditions: Mycoplasmoides genitalium, read-out: MIC
# Mycoplasma genitalium [2] = assay: Antibacterial activity against Mycoplasma genitalium TW48-5G by broth dilution method; conditions: Mycoplasmoides genitalium, read-out: MIC
# Mycoplasma genitalium [3] = assay: Antibacterial activity against Mycoplasma genitalium by quantitative TaqMan PCR method; conditions: Mycoplasmoides genitalium
# Mycoplasma genitalium [4] = assay: Antibacterial activity against Mycoplasma genitalium M6283 by broth dilution method; conditions: Mycoplasmoides genitalium
# Mycoplasma genitalium [5] = assay: Antibacterial activity against Mycoplasma genitalium M6287 by broth dilution method; conditions: Mycoplasmoides genitalium
# Mycoplasma genitalium [6] = assay: Antibacterial activity against Mycoplasma genitalium M2282 by broth dilution method; conditions: Mycoplasmoides genitalium
# Mycoplasma genitalium [7] = assay: Antibacterial activity against Mycoplasma genitalium M2321 by broth dilution method; conditions: Mycoplasmoides genitalium
# Mycoplasma genitalium [8] = assay: Antibacterial activity against Mycoplasma genitalium TW10-6G by broth dilution method; conditions: Mycoplasmoides genitalium, read-out: MIC
# Mycoplasma genitalium [9] = assay: Antibacterial activity against Mycoplasma genitalium M6282 by broth dilution method; conditions: Mycoplasmoides genitalium
# Mycoplasma genitalium [10] = assay: Antibacterial activity against Mycoplasma genitalium by broth dilution method; conditions: Mycoplasmoides genitalium; for MIC50: read-out: MIC50; for MIC90: read-out: MIC90
# Mycoplasma genitalium [11] = assay: Antibacterial activity against Mycoplasma genitalium M6257 by broth dilution method; conditions: Mycoplasmoides genitalium
# Mycoplasma genitalium [12] = assay: Antibacterial activity against Mycoplasma genitalium M6328 by broth dilution method; conditions: Mycoplasmoides genitalium
# Mycoplasma genitalium [13] = assay: Antibacterial activity against Mycoplasma genitalium M6151 by broth dilution method; conditions: Mycoplasmoides genitalium
# Mycoplasma genitalium [14] = assay: Antibacterial activity against Mycoplasma genitalium M2341 by broth dilution method; conditions: Mycoplasmoides genitalium
# Mycoplasma genitalium [15] = assay: Antibacterial activity against Mycoplasma genitalium M6284 by broth dilution method; conditions: Mycoplasmoides genitalium
# Mycoplasma genitalium [16] = assay: Antibacterial activity against Mycoplasma genitalium TW10-5G by broth dilution method; conditions: Mycoplasmoides genitalium, read-out: MIC
# Mycoplasma genitalium [17] = assay: Antibacterial activity against Mycoplasma genitalium M2300 by broth dilution method; conditions: Mycoplasmoides genitalium
# Mycoplasma genitalium [18] = assay: Antibacterial activity against Mycoplasma genitalium M6090 by broth dilution method; conditions: Mycoplasmoides genitalium
# Mycoplasma genitalium [19] = assay: Antibacterial activity against Mycoplasma genitalium M6286 by broth dilution method; conditions: Mycoplasmoides genitalium
# Mycoplasma genitalium [20] = assay: Antibacterial activity against Mycoplasma genitalium M6280 by broth dilution method; conditions: Mycoplasmoides genitalium
# Mycoplasma genitalium [21] = assay: Antibacterial activity against Mycoplasma genitalium G37 by broth dilution method; conditions: Mycoplasmoides genitalium, read-out: MIC
# Mycoplasma genitalium [22] = assay: Antibacterial activity against Mycoplasma genitalium M6285 by broth dilution method; conditions: Mycoplasmoides genitalium
# Mycoplasma genitalium [23] = assay: Antibacterial activity against Mycoplasma genitalium M30 by broth dilution method; conditions: Mycoplasmoides genitalium, read-out: MIC
# Mycoplasma genitalium [24] = assay: Antibacterial activity against Mycoplasma genitalium R32 by broth dilution method; conditions: Mycoplasmoides genitalium, read-out: MIC
smiles,measurement,setting,value
COc1c(N2CCNC(C)C2)c(F)cc2c(=O)c(C(=O)O)cn(C3CC3)c12 (stereo not drawn) [GATIFLOXACIN],MIC,Mycoplasma genitalium [1],0.125 µg/mL
same,MIC,Mycoplasma genitalium [2],0.125 µg/mL
same,MIC50,Mycoplasma genitalium [3],0.5 µg/mL
same,MIC90,Mycoplasma genitalium [3],0.5 µg/mL
same,MIC,Mycoplasma genitalium [4],0.031 µg/mL
same,MIC,Mycoplasma genitalium [5],0.031 µg/mL
same,MIC,Mycoplasma genitalium [6],0.031 µg/mL
same,MIC,Mycoplasma genitalium [7],0.031 µg/mL
same,MIC,Mycoplasma genitalium [8],0.125 µg/mL
same,MIC,Mycoplasma genitalium [9],0.031 µg/mL
same,MIC50,Mycoplasma genitalium [10],0.25 µg/mL
same,MIC90,Mycoplasma genitalium [10],0.25 µg/mL
same,MIC,Mycoplasma genitalium [11],0.031 µg/mL
same,MIC,Mycoplasma genitalium [12],0.031 µg/mL
same,MIC,Mycoplasma genitalium [13],0.031 µg/mL
same,MIC,Mycoplasma genitalium [14],0.031 µg/mL
same,MIC,Mycoplasma genitalium [15],0.031 µg/mL
same,MIC,Mycoplasma genitalium [16],0.125 µg/mL
same,MIC,Mycoplasma genitalium [17],0.031 µg/mL
same,MIC,Mycoplasma genitalium [18],0.031 µg/mL
same,MIC,Mycoplasma genitalium [19],0.031 µg/mL
same,MIC,Mycoplasma genitalium [20],0.031 µg/mL
same,MIC,Mycoplasma genitalium [21],0.125 µg/mL
same,MIC,Mycoplasma genitalium [22],0.031 µg/mL
same,MIC,Mycoplasma genitalium [23],0.125 µg/mL
same,MIC,Mycoplasma genitalium [24],0.125 µg/mL
N[C@@H]1CN(c2c(F)cc3c(=O)c(C(=O)O)cn([C@@H]4C[C@@H]4F)c3c2Cl)CC12CC2 [SITAFLOXACIN ANHYDROUS],MIC,Mycoplasma genitalium [1],0.063 µg/mL
same,MIC,Mycoplasma genitalium [2],0.063 µg/mL
same,MIC50,Mycoplasma genitalium [3],0.063 µg/mL
same,MIC90,Mycoplasma genitalium [3],0.125 µg/mL
same,MIC,Mycoplasma genitalium [4],0.008 µg/mL
same,MIC,Mycoplasma genitalium [5],0.008 µg/mL
same,MIC,Mycoplasma genitalium [6],0.008 µg/mL
same,MIC,Mycoplasma genitalium [7],0.008 µg/mL
same,MIC,Mycoplasma genitalium [8],0.063 µg/mL
same,MIC,Mycoplasma genitalium [9],0.008 µg/mL
same,MIC50,Mycoplasma genitalium [10],0.063 µg/mL
same,MIC90,Mycoplasma genitalium [10],0.125 µg/mL
same,MIC,Mycoplasma genitalium [11],0.008 µg/mL
same,MIC,Mycoplasma genitalium [12],0.008 µg/mL
same,MIC,Mycoplasma genitalium [13],0.008 µg/mL
same,MIC,Mycoplasma genitalium [14],0.008 µg/mL
same,MIC,Mycoplasma genitalium [15],0.008 µg/mL
same,MIC,Mycoplasma genitalium [16],0.063 µg/mL
same,MIC,Mycoplasma genitalium [17],0.008 µg/mL
same,MIC,Mycoplasma genitalium [18],0.008 µg/mL
same,MIC,Mycoplasma genitalium [19],0.008 µg/mL
same,MIC,Mycoplasma genitalium [20],0.008 µg/mL
same,MIC,Mycoplasma genitalium [21],0.063 µg/mL
same,MIC,Mycoplasma genitalium [22],0.008 µg/mL
same,MIC,Mycoplasma genitalium [23],0.063 µg/mL
same,MIC,Mycoplasma genitalium [24],0.063 µg/mL
COc1c(N2C[C@@H]3CCCN[C@@H]3C2)c(F)cc2c(=O)c(C(=O)O)cn(C3CC3)c12 [MOXIFLOXACIN],MIC,Mycoplasma genitalium [1],0.063 µg/mL
same,MIC,Mycoplasma genitalium [2],0.063 µg/mL
same,MIC50,Mycoplasma genitalium [3],0.063 µg/mL
same,MIC90,Mycoplasma genitalium [3],0.125 µg/mL
same,MIC,Mycoplasma genitalium [4],0.016 µg/mL
same,MIC,Mycoplasma genitalium [5],0.016 µg/mL
same,MIC,Mycoplasma genitalium [6],0.016 µg/mL
same,MIC,Mycoplasma genitalium [7],0.016 µg/mL
same,MIC,Mycoplasma genitalium [8],0.063 µg/mL
same,MIC,Mycoplasma genitalium [9],0.016 µg/mL
same,MIC50,Mycoplasma genitalium [10],0.063 µg/mL
same,MIC90,Mycoplasma genitalium [10],0.125 µg/mL
same,MIC,Mycoplasma genitalium [11],0.016 µg/mL
same,MIC,Mycoplasma genitalium [12],0.016 µg/mL
same,MIC,Mycoplasma genitalium [13],0.016 µg/mL
same,MIC,Mycoplasma genitalium [14],0.016 µg/mL
same,MIC,Mycoplasma genitalium [15],0.016 µg/mL
same,MIC,Mycoplasma genitalium [16],0.063 µg/mL
same,MIC,Mycoplasma genitalium [17],0.016 µg/mL
same,MIC,Mycoplasma genitalium [18],0.016 µg/mL
same,MIC,Mycoplasma genitalium [19],0.016 µg/mL
same,MIC,Mycoplasma genitalium [20],0.016 µg/mL
same,MIC,Mycoplasma genitalium [21],0.063 µg/mL
same,MIC,Mycoplasma genitalium [22],0.016 µg/mL
same,MIC,Mycoplasma genitalium [23],0.063 µg/mL
same,MIC,Mycoplasma genitalium [24],0.063 µg/mL
